Experimental data published in patent publication US10010614B2, “Derivatives of GLP-1 like peptides, and uses thereof” (Novo Nordisk A/S, priority 2013, dated 2018).
pEC50, pIC50: −log10 of the molar value. Where two headings read alike, the source gives them in different places. Numbered stars: 1 amine (or outer) side, 2 acyl side, 3 side chain; on linkers, the order of the positions; unused ones are H or OH. Square brackets hold non-standard residues; d marks the D form. Side chains are listed from the residue outwards. Peptide text beside a SMILES is read from it. * marks the point of attachment. X2 = O=C(O)CCCCCCCCCCCCCCCCCCC(=O)NC[C@H]1CC[C@H](C(=O)N[C@@H](CCC(=O)NCCOCCOCCN*)C(=O)O)CC1; X4 = O=C(O)CCCCCCCCCCCCCCCCCCC(=O)N1CCC(C(=O)N[C@@H](CCC(=O)NCCCOCCOCCOCCCN*)C(=O)O)CC1; X3 = O=C(O)CCCCCCCCCCCCCCCCCCC(=O)N[C@@H](CCC(=O)NCCCOCCOCCOCCCNC(=O)COCC(=O)*)C(=O)O; C20 diacid = O=C(O)CCCCCCCCCCCCCCCCCCC(=O)*; γGlu = O=C(O)[C@H](CCC(=O)[*:2])N[*:1]; Trx = NC[C@H]1CC[C@H](C(=O)O)CC1; Suc = O=C(CCC(=O)[*:2])[*:1]; AEEA = NCCOCCOCC(=O)O; Aib = CC(C)(N)C(=O)O

Assays:
human GLP-1 receptor [1] = target: T1, human GLP-1 receptor (Homo sapiens, UniProt P43220); assay: In vitro potency, CRE luciferase reporter gene assay in BHK cells expressing the human GLP-1 receptor; type: cell-based; conditions: whole cell reporter gene assay, 3 h incubation, no HSA, averages of at least two replicates
T1 construct: expressed in transfected cells; host or cells: membranes prepared from BHK cells (parent line BHKTS13), clone FCW467-12A
Procedure: The purpose of this example is to test the activity, or potency, of the GLP-1 derivatives in vitro. The in vitro potency is the measure of human GLP-1 receptor activation in a whole cell assay.
Semaglutide was included for comparison.
In vitro potency was determined by measuring the response of the human GLP-1 receptor in a reporter gene assay. The assay was performed in a stably transfected BHK cell line that expresses the human GLP-1 receptor and contains the DNA for the cAMP response element (CRE) coupled to a promoter and the gene for firefly luciferase (CRE luciferase). When the human GLP-1 receptor is activated it results in the production of cAMP, which in turn results in the luciferase protein being expressed. When assay incubation is completed the luciferase substrate (luciferin) is added and the enzyme converts luciferin to oxyluciferin to produce bioluminescence. The luminescence is measured as the readout for the assay.
The cells used in this assay (clone FCW467-12A/KZ10-1) were BHK cells with BHKTS13 as a parent cell line. The cells were derived from a clone (FCW467-12A) that expresses the human GLP-1 receptor and were established by further transfection with CRE luciferase to obtain the current clone.
The cells were cultured at 5% CO2 in Cell Culture Medium. They were aliquoted and stored in liquid nitrogen. Before each assay an aliquot is taken up and washed twice in PBS before being suspended at the desired concentration in the assay specific buffer. For 96-well plates the suspension was made to give a final concentration of 5×10^3 cells/well.
The following chemicals were used in the assay: Pluronic F-68 (10%) (Gibco 2404), human serum albumin (HSA) (Sigma A9511), ovalbumin (Sigma A5503), DMEM w/o phenol red (Gibco 11880-028), 1 M Hepes (Gibco 15630), Glutamax 100× (Gibco 35050) and steadylite plus (PerkinElmer 6016757).
Cell Culture Medium consisted of DMEM medium with 10% FBS (Fetal Bovine Serum; Invitrogen 16140-071), 1 mg/ml G418 (Invitrogen 15140-122), 240 nM MTX (methotrexate; Sigma M9929) and 1% pen/strep (penicillin/streptomycin; Invitrogen 15140-122).
Assay Medium consisted of DMEM w/o phenol red, 10 mM Hepes and 1× Glutamax. The Assay Buffer consisted of 2% ovalbumin and 0.2% Pluronic F-68 in Assay Medium.
1) Cell stocks were thawed in a 37° C. water bath.
2) Cells were washed three times in PBS.
3) The cells were counted and adjusted to 5×10^3 cells/50 μl (1×10^5 cells/ml) in Assay Medium. A 50 μl aliquot of cells was transferred to each well in the assay plate.
4) Stocks of the test compounds and reference compounds were diluted to a concentration of 0.2 μM in Assay Buffer. Compounds were diluted 10-fold to give the following concentrations: 2×10^−7 M, […]; 2×10^−9 M, 2×10^−10 M, 2×10^−11 M, 2×10^−12 M, 2×10^−13 M, and 2×10^−14 M. 5) A 50 μl aliquot of compound or blank was transferred from the dilution plate to the assay plate. Compounds were tested at the following final concentrations: 1×10^−7 M, 1×10^−8 M; 1×10^−9 M, 1×10^−10 M, 1×10^−11 M, 1×10^−12 M, 1×10^−13 M, and 1×10^−14 M. 6) The assay plate was incubated for 3 h in a 5% CO2 incubator at 37° C. 7) The assay plate was removed from the incubator and allowed to stand at room temperature for 15 min. 8) A 100 μl aliquot of steadylite plus reagent was added to each well of the assay plate (reagent was light sensitive). 9) Each assay plate was covered with aluminum foil to protect it from light and shaken for 30 min at room temperature. 10) Each assay plate was read in a Packard TopCount NXT instrument. Calculations and Results
The data from the TopCount instrument were transferred to GraphPad Prism software. The software performs a non-linear regression (log(agonist) vs response).
A minimum of two replicates was measured for each sample. The reported values are averages of the replicates.

human GLP-1 receptor [2] = target: T1, human GLP-1 receptor; assay: GLP-1 receptor binding, competitive binding assay (125I-GLP-1, SPA) on isolated membranes;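 also: test compounds added at a range of concentrations to membranes from cells expressing the human GLP-1 receptor, scored by displacement of labelled ligand, read with WGA SPA beads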
[3] = High HSA IC50 (nM), high serum albumin (2.0% HSA final assay concentration)
[4] = Low HSA IC50 (nM), low serum albumin (max. 0.001% final assay concentration)

T1 sequence (P43220 24-463): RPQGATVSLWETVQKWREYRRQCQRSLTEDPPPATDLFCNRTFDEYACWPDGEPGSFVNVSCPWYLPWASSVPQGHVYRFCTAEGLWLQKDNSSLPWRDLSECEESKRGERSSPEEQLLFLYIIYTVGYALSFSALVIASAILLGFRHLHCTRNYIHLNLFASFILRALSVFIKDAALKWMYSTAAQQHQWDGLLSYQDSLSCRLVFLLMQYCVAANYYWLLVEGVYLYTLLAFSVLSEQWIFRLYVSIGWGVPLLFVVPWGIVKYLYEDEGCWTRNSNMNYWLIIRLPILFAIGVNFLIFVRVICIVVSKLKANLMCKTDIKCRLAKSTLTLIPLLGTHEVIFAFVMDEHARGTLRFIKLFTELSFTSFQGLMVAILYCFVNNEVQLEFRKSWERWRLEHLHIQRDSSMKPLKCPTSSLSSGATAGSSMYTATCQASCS

SMILES | pEC50 (human GLP-1 receptor [1]) | IC50 (human GLP-1 receptor [2]; [3]) | IC50 (human GLP-1 receptor [2]; [4]) | pIC50 (human GLP-1 receptor [2]; high serum albumin (2.0% HSA final assay concentration), read-out: High HSA IC50) | pIC50 (human GLP-1 receptor [2]; low serum albumin (max. 0.001% final assay concentration), read-out: Low HSA IC50)
CC[C@H](C)[C@H](NC(=O)[C@H](Cc1ccccc1)NC(=O)[C@H](CCC(=O)O)NC(=O)[C@H](CCCNC(=N)N)NC(=O)[C@H](C)NC(=O)[C@H](C)NC(=O)[C@H](CCC(N)=O)NC(=O)[C@H](CCC(=O)O)NC(=O)[C@H](CCC(=O)O)NC(=O)[C@H](CC(C)C)NC(=O)[C@H](Cc1ccc(O)cc1)NC(=O)[C@H](CO)NC(=O)[C@H](CO)NC(=O)[C@@H](NC(=O)[C@H](CC(=O)O)NC(=O)[C@H](CO)NC(=O)[C@@H](NC(=O)[C@H](Cc1ccccc1)NC(=O)[C@@H](NC(=O)CNC(=O)[C@H](CCC(=O)O)NC(=O)C(C)(C)NC(=O)[C@@H](N)Cc1c[nH]cn1)[C@@H](C)O)[C@@H](C)O)C(C)C)C(=O)N[C@@H](C)C(=O)N[C@@H](Cc1c[nH]c2ccccc12)C(=O)N[C@@H](CC(C)C)C(=O)N[C@H](C(=O)N[C@@H](CCCNC(=N)N)C(=O)NCC(=O)N[C@@H](CCCNC(=N)N)C(=O)NCC(=O)N[C@@H](CCCCNC(=O)CCC(=O)NCCCOCCOCCOCCCNC(=O)CC[C@H](NC(=O)C1CCN(C(=O)CCCCCCCCCCCCCCCCCCC(=O)O)CC1)C(=O)O)C(=O)NCC(=O)NCC(=O)N[C@@H](CO)C(=O)N[C@@H](CCCCNC(=O)CCC(=O)NCCCOCCOCCOCCCNC(=O)CC[C@H](NC(=O)C1CCN(C(=O)CCCCCCCCCCCCCCCCCCC(=O)O)CC1)C(=O)O)C(=O)O)C(C)C [Example 21] (H-H[Aib]EGTFTSDVSSYLEEQAAREFIAWLVRGRGK([Suc-X4])GGSK([Suc-X4])-OH; N-terminus and C-terminus assumed) | 10.72 | 177 nM | 1.3 nM | – | –
CC[C@H](C)[C@H](NC(=O)[C@H](Cc1ccccc1)NC(=O)[C@H](CCC(=O)O)NC(=O)[C@H](CCCNC(=N)N)NC(=O)[C@H](C)NC(=O)[C@H](C)NC(=O)[C@H](CCC(N)=O)NC(=O)[C@H](CCC(=O)O)NC(=O)[C@H](CCC(=O)O)NC(=O)[C@H](CC(C)C)NC(=O)[C@H](Cc1ccc(O)cc1)NC(=O)[C@H](CO)NC(=O)[C@H](CO)NC(=O)[C@@H](NC(=O)[C@H](CC(=O)O)NC(=O)[C@H](CO)NC(=O)[C@@H](NC(=O)[C@H](Cc1ccccc1)NC(=O)[C@@H](NC(=O)CNC(=O)[C@H](CCC(=O)O)NC(=O)C(C)(C)NC(=O)[C@@H](N)Cc1c[nH]cn1)[C@@H](C)O)[C@@H](C)O)C(C)C)C(=O)N[C@@H](C)C(=O)N[C@@H](Cc1c[nH]c2ccccc12)C(=O)N[C@@H](CC(C)C)C(=O)N[C@H](C(=O)N[C@@H](CCCNC(=N)N)C(=O)NCC(=O)N[C@@H](CCCNC(=N)N)C(=O)NCC(=O)N[C@@H](CCCCNC(=O)COCC(=O)NCCCOCCOCCOCCCNC(=O)CC[C@H](NC(=O)CCCCCCCCCCCCCCCCCCC(=O)O)C(=O)O)C(=O)NCC(=O)NCC(=O)N[C@@H](CO)C(=O)N[C@@H](CCCCNC(=O)COCC(=O)NCCCOCCOCCOCCCNC(=O)CC[C@H](NC(=O)CCCCCCCCCCCCCCCCCCC(=O)O)C(=O)O)C(=O)O)C(C)C [Example 22, N{Alpha}([Aib8,Glu22,Arg26,Arg34]-GLP-1-(7-37)-peptidyl)-N{Epsilon}[2-[2-[3-[2-[2-[3-[[(4S)-4-carboxy-4-(19-carboxynonadecanoylamino)butanoyl]amino]propoxy]ethoxy]ethoxy]propylamino]-2-oxoethoxy]acetyl]Lys-Gly-Gly-Ser-N{Epsilon}[2-[2-[3-[2-[2-[3-[[(4S)-4-carboxy-4-(19-carboxynonadecanoylamino)butanoyl]amino]propoxy]ethoxy]ethoxy]propylamino]-2-oxoethoxy]acetyl]Lys] (H-H[Aib]EGTFTSDVSSYLEEQAAREFIAWLVRGRGK(X3)GGSK(X3)-OH; N-terminus and C-terminus assumed) | 11.00 | – | – | 6.71 | 9.09
CC[C@H](C)[C@H](NC(=O)[C@H](Cc1ccccc1)NC(=O)[C@H](CCC(=O)O)NC(=O)[C@H](CCCNC(=N)N)NC(=O)[C@H](C)NC(=O)[C@H](C)NC(=O)[C@H](CCC(N)=O)NC(=O)[C@H](CCC(=O)O)NC(=O)[C@H](CCC(=O)O)NC(=O)[C@H](CC(C)C)NC(=O)[C@H](Cc1ccc(O)cc1)NC(=O)[C@H](CO)NC(=O)[C@H](CO)NC(=O)[C@@H](NC(=O)[C@H](CC(=O)O)NC(=O)[C@H](CO)NC(=O)[C@@H](NC(=O)[C@H](Cc1ccccc1)NC(=O)[C@@H](NC(=O)CNC(=O)[C@H](CCC(=O)O)NC(=O)C(C)(C)NC(=O)[C@@H](N)Cc1c[nH]cn1)[C@@H](C)O)[C@@H](C)O)C(C)C)C(=O)N[C@@H](C)C(=O)N[C@@H](Cc1c[nH]c2ccccc12)C(=O)N[C@@H](CC(C)C)C(=O)N[C@H](C(=O)N[C@@H](CCCNC(=N)N)C(=O)NCC(=O)N[C@@H](CCCNC(=N)N)C(=O)NCC(=O)N[C@@H](CCCCNC(=O)CCC(=O)NCCOCCOCCNC(=O)CC[C@H](NC(=O)[C@H]1CC[C@H](CNC(=O)CCCCCCCCCCCCCCCCCCC(=O)O)CC1)C(=O)O)C(=O)NCC(=O)NCC(=O)N[C@@H](CO)C(=O)N[C@@H](CCCCNC(=O)CCC(=O)NCCOCCOCCNC(=O)CC[C@H](NC(=O)[C@H]1CC[C@H](CNC(=O)CCCCCCCCCCCCCCCCCCC(=O)O)CC1)C(=O)O)C(=O)O)C(C)C [Example 23] (H-H[Aib]EGTFTSDVSSYLEEQAAREFIAWLVRGRGK([Suc-X2])GGSK([Suc-X2])-OH) | 10.66 | 201 nM | 1.4 nM | – | –
CC[C@H](C)[C@H](NC(=O)[C@H](Cc1ccccc1)NC(=O)[C@H](CCC(=O)O)NC(=O)[C@H](CCCNC(=N)N)NC(=O)[C@H](C)NC(=O)[C@H](C)NC(=O)[C@H](CCC(N)=O)NC(=O)[C@H](CCC(=O)O)NC(=O)[C@H](CCC(=O)O)NC(=O)[C@H](CC(C)C)NC(=O)[C@H](Cc1ccc(O)cc1)NC(=O)[C@H](CO)NC(=O)[C@H](CO)NC(=O)[C@@H](NC(=O)[C@H](CC(=O)O)NC(=O)[C@H](CO)NC(=O)[C@@H](NC(=O)[C@H](Cc1ccccc1)NC(=O)[C@@H](NC(=O)CNC(=O)[C@H](CCC(=O)O)NC(=O)C(C)(C)NC(=O)[C@@H](N)Cc1c[nH]cn1)[C@@H](C)O)[C@@H](C)O)C(C)C)C(=O)N[C@@H](C)C(=O)N[C@@H](Cc1c[nH]c2ccccc12)C(=O)N[C@@H](CC(C)C)C(=O)N[C@H](C(=O)N[C@@H](CCCNC(=N)N)C(=O)NCC(=O)N[C@@H](CCCNC(=N)N)C(=O)NCC(=O)N[C@@H](CCCCNC(=O)COCCOCCNC(=O)COCCOCCNC(=O)COCCOCCNC(=O)COCCOCCNC(=O)COCCOCCNC(=O)COCCOCCNC(=O)CC[C@H](NC(=O)[C@H]1CC[C@H](CNC(=O)CCCCCCCCCCCCCCCCCCC(=O)O)CC1)C(=O)O)C(=O)NCC(=O)NCC(=O)N[C@@H](CO)C(=O)N[C@@H](CCCCNC(=O)COCCOCCNC(=O)COCCOCCNC(=O)COCCOCCNC(=O)COCCOCCNC(=O)COCCOCCNC(=O)COCCOCCNC(=O)CC[C@H](NC(=O)[C@H]1CC[C@H](CNC(=O)CCCCCCCCCCCCCCCCCCC(=O)O)CC1)C(=O)O)C(=O)O)C(C)C [Example 24] (H-H[Aib]EGTFTSDVSSYLEEQAAREFIAWLVRGRGK([AEEA-AEEA-AEEA-AEEA-AEEA-AEEA-γGlu-Trx-C20 diacid])GGSK([AEEA-AEEA-AEEA-AEEA-AEEA-AEEA-γGlu-Trx-C20 diacid])-OH) | 11.15 | 84 nM | 0.67 nM | – | –
